Drawing on ChEMBL document CHEMBL5356986, “Research status of indole-modified natural products” (RSC Med Chem, 2023), this text covers IC50 and MIC for 16 compounds.

The subject of assay [1] is Leishmania donovani. In words: Antileishmanial activity against Leishmania donovani assessed as parasite growth inhibition. The format is functional, organism-based.
Assay [2] can be described thus: Antioxidant activity assessed as DPPH radical scavenging activity. The format is functional. In general terms: The DPPH test is a chemical assay of radical scavenging.
Assay [3] relates to A549. In words: Antiproliferative activity against human A549 cells assessed as reduction in cell growth incubated for 72 hrs by MTT assay. The format is functional, cell-based. As to conditions: A549, 72 h. (Formazan colour is commonly taken as a measure of viable cells.)
Assay [4] relates to HeLa. The experiment in a line: Cytotoxicity against human HeLa cells assessed as reduction in cell viability incubated for 48 hrs by MTT assay. Type of assay: functional, cell-based.
For assay [5], the system named is PC-3. In words: Antiproliferative activity against human PC-3 cells assessed as reduction in cell growth measured after 24 hrs by MTT assay. Type of assay: functional, cell-based. The conditions noted are these: PC-3, 24 h.
Assay [6] has as its system Hep 3B2. In words: Cytotoxicity against human Hep3B cells assessed as cell growth inhibition by MTT colorimetric assay. Type of assay: functional, cell-based.
The subject of assay [7] is HepG2. The experiment in a line: Cytotoxicity against human HepG2 cells assessed as reduction in cell viability by MTT assay. Type of assay: functional.
Assay [8] has as its system SMMC-7721. The experiment in a line: Cytotoxicity against human SMMC-7721 cells assessed as reduction in cell viability by SRB assay. The format is functional, cell-based. (In SRB staining, fixed cells bind dye roughly in proportion to their protein.)
In assay [9] the test system is A549. In words: Cytotoxicity against human A549 cells assessed as reduction in cell viability by MTS assay. Type of assay: functional, cell-based.
The nature of assay [10]: Inhibition of hyaluronidase (unknown origin). The arrangement: species or system Homo sapiens.
The test system of assay [11] is MCF7. The experiment in a line: Cytotoxicity against human MCF7 cells assessed as reduction in cell viability by MTS assay. The format is functional, cell-based.
Assay [12] relates to HCT-116. In words: Cytotoxicity against human HCT-116 cells assessed as reduction in cell viability by MTS assay. The format is functional, cell-based.
For assay [13], the system named is Bel-7402. In words: Cytotoxicity against human Bel-7402 cells assessed as reduction in cell viability. Type of assay: functional, cell-based.
Assay [14] concerns HepG2. The experiment in a line: Antiproliferative activity against human HepG2 cells assessed as reduction in cell viability incubated for 48 hrs by MTT assay. As to conditions: HepG2, 48 h. Type of assay: functional, cell-based.
For assay [15], the system named is MCF7. The experiment in a line: Antiproliferative activity against human MCF7 cells assessed as inhibition of cell growth by CCK8 assay. The format is functional, cell-based.
Assay [16] relates to HeLa. The experiment in a line: Cytotoxicity against human HeLa cells assessed as cell growth inhibition incubated for 24 hrs by MTT assay. The format is functional, cell-based.
The subject of assay [17] is Bacillus subtilis. In words: Antibacterial activity against Bacillus subtilis assessed as reduction in microbial growth. Type of assay: functional.
In assay [18] the test system is Klebsiella pneumoniae. The experiment in a line: Antibacterial activity against Klebsiella pneumoniae assessed as reduction in bacterial growth by broth microdilution method. Type of assay: functional.
The subject of assay [19] is Staphylococcus aureus. The experiment in a line: Antibacterial activity against Staphylococcus aureus assessed as reduction in microbial growth. Type of assay: functional.
In assay [20] the test system is Fusarium oxysporum. In words: Antifungal activity against Fusarium oxysporum assessed as inhibition of fungal growth. The format is functional.
Assay [21] deals with Candida albicans. In words: Antibacterial activity against Candida albicans assessed as reduction in bacterial growth. Type of assay: functional.
The test system of assay [22] is Escherichia coli. The experiment in a line: Antibacterial activity against Escherichia coli assessed as reduction in bacterial cell viability. The format is functional.
For assay [23], the system named is RAW264.7. In words: Anti-inflammatory activity in mouse RAW264.7 cells assessed as inhibition of LPS-induced NO production. Type of assay: functional, cell-based.
In assay [24] the test system is Aspergillus niger. The experiment in a line: […] against Aspergillus niger assessed as […] incubated for 24 hrs by agar disc diffusion assay. The format is functional.
Assay [25] concerns MDA-MB-453. The experiment in a line: Antiproliferative activity against human MDA-MB-453 cells assessed as inhibition of cell growth incubated for 48 hrs by MTT assay. The format is functional, cell-based. The conditions noted are these: MDA-MB-453, 48 h.
Assay [26] concerns MDA-MB-231. In words: Antiproliferative activity against human MDA-MB-231 cells assessed as reduction in cell viability incubated for 48 hrs by MTT assay. Type of assay: functional, cell-based. As to conditions: MDA-MB-231, 48 h.
Assay [27] addresses Alpha glucosidase (Homo sapiens, UniProt O43451+P10253+P14410+Q2M2H8). The experiment in a line: Inhibition of Alpha-glucosidase (unknown origin) using p-nitrophenyl glucopyranoside as substrate by UV based microplate reader analysis. The format is protein assay.
Assay [28] relates to MCF7. The experiment in a line: Cytotoxicity against human MCF7 cells assessed as reduction in cell viability after 48 hrs by SRB assay. As to conditions: MCF7, 48 h. The format is functional, cell-based.
For assay [29], the system named is Toxoplasma gondii. The experiment in a line: Antiparasitic activity against Toxoplasma gondii tachyzoites infected in human HeLa cells measured after 24 hrs by MTT assay. Type of assay: functional, organism-based.
The subject of assay [30] is A549. The experiment in a line: Antiproliferative activity against human A549 cells assessed as reduction in cell viability by MTT assay. Type of assay: functional, cell-based.
Assay [31] has as its system Arthrodermataceae. In words: Antibacterial activity against Arthrodermataceae. The format is functional.
Assay [32] deals with Nannizzia gypsea. In words: Antifungal activity against Microsporum gypseum assessed as fungal growth inhibition. Type of assay: functional.
Assay [33] deals with Trichophyton mentagrophytes. In words: Antifungal activity against Trichophyton mentagrophytes assessed as inhibition of microbial growth. The format is functional.
Assay [34] relates to Trichophyton mentagrophytes. In words: Antifungal activity against Trichophyton mentagrophytes assessed as inhibition of fungal growth incubated for 48 hrs by serial plate dilution method. The format is functional.
In assay [35] the test system is K562. In words: Antiproliferative activity against human K562 cells assessed as cell growth inhibition by MTT assay. The format is functional, cell-based.
Assay [36] concerns A549. In words: Antiproliferative activity against human A549 cells assessed as reduction in cell viability incubated for 48 hrs by MTT assay. Type of assay: functional, cell-based. As to conditions: A549, 48 h.
For assay [37], the system named is HeLa. The experiment in a line: Antiproliferative activity against human HeLa cells assessed as reduction in cell growth. The format is functional, cell-based.
The subject of assay [38] is MCF7. The experiment in a line: Antiproliferative activity against human MCF7 cells assessed as reduction in cell viability incubated for 120 hrs by MTT assay. The format is functional, cell-based. The conditions noted are these: MCF7, 120 h.

Values after ≈ are worked out from the molar mass of the structure shown. Some results are limits rather than exact numbers.

One may read the IC50 as the concentration needed to halve the response being measured. On to `O=C(CCC(c1c(Cl)cccc1Cl)c1c[nH]c2ccccc12)c1c(O)c2ccccc2oc1=O` (stereo not drawn), for which the concentration for half-maximal inhibition (IC50) in [1] amounted to 95 µg/mL (≈ 193 µM); in assay [2], 13.5 µM.

Turning to `CCOc1c(Br)cc(/C=C/C(=O)c2cc3ccccc3n2C)cc1OC`, in [3], the IC50 stood at 4.3 µM.

As for `COc1ccc(/C=C/C(=O)/C=C/c2c[nH]c3ccccc23)c(OC)c1OC`, the values for the IC50 in [4] and in assay [5] were 3.31 µM and 3.15 µM, respectively.

Turning to `CCOC(=O)c1ccc2c(c1)c1c(n2CCN2CCNCC2)-c2cc(C(C)C)ccc2[C@@]2(C)CCC[C@@](C)(C(=O)OC)[C@H]12`, the IC50 was less than 0.73 µM in [6], 0.51 µM in assay [7] and less than 1.39 µM in [8].

On to `CC(C)=CCC[C@](C)(O)[C@H]1CC[C@@](C)([C@H]2CC[C@H]3[C@H]2CC[C@H]2C(C)(C)c4[nH]c5ccc(Br)cc5c4C[C@]32C)O1`, for which the IC50 in assay [9] turned out to be 13.4 µM.

Take `CC1(C)CC[C@]2(C(=O)O)CC[C@]3(C)C(=CC[C@@H]4[C@@]5(C)Cc6c([nH]c7c(F)cc(F)cc67)C(C)(C)[C@@H]5CC[C@]43C)[C@@H]2C1`: in [10], the IC50 amounted to 9.97 µM.

In the case of `C=C1C(=O)[C@]23[C@H](OC(=O)c4cc5cc(OC)ccc5[nH]4)[C@H]1CC[C@H]2[C@@]12COC3(O)[C@@H](O)[C@@H]1C(C)(C)CC[C@@H]2O` (single isomer, unassigned), the half-maximal inhibitory concentration (IC50) in [11] was found to be 0.39 µM; in assay [12], 0.81 µM; in assay [13], 0.83 µM.

Take `C[C@]12CC[C@H]3[C@]4(C=C[C@]5(C[C@@H](O)CC[C@]35C)OO4)[C@@H]1CC/C2=N\N=C1/C(=O)Nc2ccc(Cl)cc21`: the IC50 in assay [14] turned out to be 7.97 µM; in assay [15], 9.05 µM; in assay [16], 5.69 µM.

As usually defined, the MIC is the least concentration at which growth counts as inhibited. Take `NC(Cc1c[nH]c2ccccc12)C(=O)Oc1ccc2c(=O)c3ccccc3oc2c1` (stereo not drawn): the MIC is 16 µg/mL in assay [17]; 22 µg/mL (≈ 55.2 µM) in assay [18]; 16 µg/mL in assay [19]; 20 µg/mL (≈ 50.2 µM) in assay [20]; 20 µg/mL (≈ 50.2 µM) in [21]; 15 µg/mL (≈ 37.6 µM) in [22]. The minimum inhibitory concentration (MIC) in assay [24] turned out to be 21 µg/mL (≈ 52.7 µM). For the same compound, the IC50 in assay [23] is 26 µg/mL (≈ 65.3 µM).

Consider `C[C@]12CC[C@H]3[C@@H](CC=C4C[C@@H](O)CC[C@@H]43)[C@@H]1CC/C2=N\N=C\c1c[nH]c2ccccc12`, for which the figures for the 50% inhibitory concentration (IC50) in [25], in assay [15] and in assay [26] were 0.01 µM, 1.06 µM and 0.00481 µM, respectively.

The compound `C=C(C)[C@@H](C)CC[C@@H](C)[C@H]1CC[C@@]2(C)[C@@H]3CC[C@H]4[C@H](C)C(=O)CC[C@@]45C[C@@]35CC[C@]12C` gave an IC50 in assay [27] of 603.8 µM.

Compound `C=C(C)[C@@H](C)CC[C@@H](C)C1CC[C@@]2(C)[C@@H]3CC[C@H]4[C@H](C)c5[nH]c6ccccc6c5C[C@@]45C[C@@]35CC[C@]12C` (stereo partly drawn) had an IC50 in assay [27] of 115.2 µM.

For the compound `C[C@@H]1CC[C@H]2[C@@H](C)C(OC(=O)c3cc4cc(Cl)ccc4[nH]3)O[C@@H]3O[C@@]4(C)CC[C@@H]1[C@]32OO4` (stereo partly drawn), the half-inhibitory concentration (IC50) was determined as 5.25 µM in assay [28], 85.3 µM in [29] and 6.17 µM in assay [30].

In the case of `COc1ccc(/C=C/C(=O)c2cn(C)c3ccccc23)cc1`, the MIC is 4 µg/mL (≈ 13.7 µM) in assay [31], 1 µg/mL (≈ 3.43 µM) in assay [32] and 8 µg/mL in [33].

In the case of `CCOc1c(Br)cc(/C=C/C(=O)c2c[nH]c3ccccc23)cc1OC`, the MIC in assay [34] came out at 2 µg/mL (≈ 5 µM); in assay [32], 0.25 µg/mL (≈ 0.625 µM); in [33], 4 µg/mL.

In the case of `COc1cc([C@@H]2c3cc4c(cc3[C@@H](O[C@@H]3O[C@@H]5CO[C@@H](C)O[C@H]5[C@H](O)[C@H]3O)[C@H]3COC(=O)[C@H]23)OCO4)cc(OC)c1O` [ETOPOSIDE], the IC50 was 1.72 µM in [35]; 2.27 µM in assay [36]; 2.56 µM in [37]; 9.9 µM in assay [3]; 2.56 µM in assay [38].
